From ChEMBL document CHEMBL3882736, “Modulation microtubules diseases; antiproliferative agents; antiinflamamtory agents” (2011)

Target: Tubulin (Homo sapiens) (UniProt P68371+Q9H4B7+P0DPH7+P68366+Q13509+Q71U36+P04350+Q3ZCM7+P07437+P68363+Q9BQE3+Q6PEY2+Q13885+Q9BVA1+Q9BUF5)
Assay: Inhibition of tubulin (unknown origin) polymerization at 50 uM by turbidometric method relative to control
Type: protein-complex assay
Settings: not given
Procedure, shortened: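 The inhibition of polymerisation reported here is expressed as percent of control. Polymerisation of microtubule protein of unstated origin, after incubation with compound at 0° C., was started with 1 mM GTP and heating to 37° C. and was tracked over time as absorbance at 340 nm in a thermostatically controlled spectrophotometer.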
For COc1cc(-c2cncc(NC(C)c3cccc(NC(=O)[C@H]4CCCN4)c3)n2)ccc1O (some centres not stated), the inhibition was > 50%.
For COc1cc(-c2cncc(NC(C)c3cccc(NC(=O)c4cccnc4)c3)n2)ccc1O (configuration not stated), the inhibition was > 50%.
In the case of COc1cc(-c2cncc(NC(C)c3ccc(-c4cccnc4)cc3)n2)ccc1O (configuration not stated), the inhibition is reported as > 50%.
With COc1cc(-c2cncc(N[C@@H](C)c3ccccc3)n2)ccc1O the inhibition was > 50%.
With CC[C@H](Nc1cncc(-c2ccc(O)c(OC)c2)n1)c1ccccc1 the inhibition was > 50%.

Test system: not listed separately
Assay: Cytotoxicity against human PC3 cells assessed as growth inhibition at 20 uM after 40 hrs by MTT assay relative to control
Type: functional
Settings: PC-3, 40 h, read-out: GI
Procedure, shortened: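 Human tumour cells in late log phase, each in its own medium with 10% FBS, were added at 90 µL per well (1.1× final, 50000 to 200,000 cell/mL) to 10 µL compound (10× final) in 96-well plates, from screening plates prepared at 20 µM. Plates were incubated 40 hr at 37° C., 5% CO2, then MTT was added for 6 hours, lysed overnight with SDS/HCl and read at 590 nm. Growth inhibition is relative to control.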
With CCCC(Nc1cncc(-c2ccc(C(=O)N3CCOCC3)cc2)n1)c1ccccc1 (configuration not stated) the inhibition of growth at 20 µM was < 50%.
For CCCC(Nc1cncc(-c2ccc(C(=O)NCCCCCN)c(C)c2)n1)c1cccnc1 (configuration not stated), the inhibition of growth at 20 µM was < 50%.
In the case of CCCC(Nc1cncc(-c2ccc(CN3CCCCC3)cc2)n1)c1ccccc1 (configuration not stated), the inhibition of growth at 20 µM is reported as < 50%.
In the case of CCCC(Nc1cncc(-c2ccc(NC(=O)c3cccnc3)c(OC)c2)n1)c1cccnc1 (configuration not stated), the inhibition of growth at 20 µM is reported as < 50%.
In the case of CCCC(Nc1cncc(-c2ccc(C(=O)NCCCN3CCOCC3)cc2)n1)c1ccccc1 (configuration not stated), the inhibition of growth at 20 µM is reported as < 50%.
With CCCC(Nc1cncc(-c2ccc(OCCCN3CCCC3)c(OC)c2)n1)c1cccnc1 (configuration not stated) the inhibition of growth at 20 µM was < 50%.
In the case of CCCC(Nc1cncc(-c2ccc(C(=O)N3CCN(C)CC3)cc2)n1)c1ccccc1 (configuration not stated), the inhibition of growth at 20 µM is reported as < 50%.
For COc1cc(-c2nc(N[C@H](C)c3ccccc3)nnc2C)cc(OC)c1OC, the inhibition of growth at 20 µM was < 50%.
For CCCC(Nc1cncc(-c2ccc(OCCCCN3CCOCC3)c(OC)c2)n1)c1ccccc1 (configuration not stated), the inhibition of growth at 20 µM was < 50%.
For CCCC(Nc1cncc(-c2ccc(OCCN(CC)CC)c(OC)c2)n1)c1cncc(C)c1 (configuration not stated), the inhibition of growth at 20 µM was < 50%.
In the case of CCCC(Nc1cncc(-c2ccc(NC(=O)NCC)cc2)n1)c1cccnc1 (configuration not stated), the inhibition of growth at 20 µM is reported as < 50%.
With CCCC(Nc1cncc(-c2ccc(C(=O)NCCN(C)C)cc2)n1)c1ccccc1 (configuration not stated) the inhibition of growth at 20 µM was < 50%.
In the case of CCNC(=O)Nc1ccc(-c2cncc(NC(C)c3cccnc3)n2)cc1OC (configuration not stated), the inhibition of growth at 20 µM is reported as < 50%.
With CCCC(Nc1cncc(-c2ccc(OCCCN3CCOCC3)c(OC)c2)n1)c1cccnc1 (configuration not stated) the inhibition of growth at 20 µM was < 50%.
In the case of CCCC(Nc1cncc(-c2ccc(CN(C)C)cc2)n1)c1ccccc1 (configuration not stated), the inhibition of growth at 20 µM is reported as < 50%.
With CCCC(Nc1cncc(-c2ccc(C(=O)NCCCN(CC)CC)cc2)n1)c1ccccc1 (configuration not stated) the inhibition of growth at 20 µM was < 50%.
For CCCC(Nc1nnc(C)c(-c2cc(OC)c(OC)c(OC)c2)n1)c1ccccc1 (configuration not stated), the inhibition of growth at 20 µM was < 50%.
For CCCC(Nc1cncc(-c2cc(OC)c(OC)c(OC)c2)c1)c1ccccc1 (configuration not stated), the inhibition of growth at 20 µM was > 50%.
With CCCC(Nc1cncc(-c2ccc(NC(=O)C3CCNCC3)c(OC)c2)n1)c1cccnc1 (configuration not stated) the inhibition of growth at 20 µM was < 50%.
In the case of CCCC(Nc1cncc(-c2ccc(CO)c(OC)c2)n1)c1cccnc1 (configuration not stated), the inhibition of growth at 20 µM is reported as < 50%.
For CCCC(Nc1cncc(-c2ccc(CN3CCC(O)CC3)cc2)n1)c1ccccc1 (configuration not stated), the inhibition of growth at 20 µM was < 50%.
For COc1cc(-c2ncc(C)c(NC(CCO)c3ccccc3)n2)ccc1O (configuration not stated), the inhibition of growth at 20 µM was < 50%.
For CCCC(Nc1cncc(-c2ccc(CN3CCC[C@H]3CO)cc2)n1)c1ccccc1 (some centres not stated), the inhibition of growth at 20 µM was < 50%.
For CCCC(Nc1cncc(-c2ccc(NC(=O)N3CCN(C)CC3)c(OC)c2)n1)c1cccnc1 (configuration not stated), the inhibition of growth at 20 µM was > 50%.
For CCCC(Nc1cncc(-c2ccc(OCCCN3CCN(C)CC3)c(OC)c2)n1)c1cccnc1 (configuration not stated), the inhibition of growth at 20 µM was < 50%.
In the case of COc1cc(-c2nc(N[C@H](C)c3ccccc3)nnc2C)ccc1O, the inhibition of growth at 20 µM is reported as < 50%.
For CCCC(Nc1cncc(-c2ccc(CN3CCOCC3)cc2)n1)c1ccccc1 (configuration not stated), the inhibition of growth at 20 µM was < 50%.
In the case of CCCC(Nc1cncc(-c2ccc(CN3CCN(C)CC3)cc2)n1)c1ccccc1 (configuration not stated), the inhibition of growth at 20 µM is reported as < 50%.
With CCCC(Nc1cncc(-c2ccc(CNC(=O)C3CCC(=O)N3)cc2)n1)c1ccccc1 (configuration not stated) the inhibition of growth at 20 µM was < 50%.
For CCCC(Nc1cncc(-c2ccc(OCCCN3CCOCC3)c(OC)c2)n1)c1ccccc1 (configuration not stated), the inhibition of growth at 20 µM was > 50%.
With CCCC(Nc1cncc(-c2ccc(NC(=O)NCCCN(CC)CC)c(OC)c2)n1)c1cccnc1 (configuration not stated) the inhibition of growth at 20 µM was < 50%.
In the case of CCC[C@H](Nc1cncc(-c2ccc(NC(=O)CN(C)C)c(OC)c2)n1)c1cccnc1, the inhibition of growth at 20 µM is reported as > 50%.
